Earlier results on one compound are cited in PubChem BioAssay AID1259409 (Chemical Carcinogenesis Research Information System (CCRIS), 2018).

Molecules are shown by their SMILES.

For the data set, the system named is rodent chemically induced tumor inhibition, incidence and multiplicity. Put plainly: CCRIS tumor inhibitor studies. Particulars: Route [Inhibitor]: ORAL, Species: HAMSTER, Promoter: NONE USED.

Regarding `CC1=C(/C=C/C(C)=C/C=C/C(C)=C\C(=O)O)C(C)(C)CCC1`, the “tumour outcome (control, treated, inhibition, significance)” value (Carcinogen: N-NITROBIS(2-OXOPROPYL)AMINE, 60559-38-4, Dose [Inhibitor]: 0.4 OR 0.8 MMOL/KG DIET DAILY STARTING 1 WK AFTER CARCINOGEN TREATMENT AND CONTINUING THROUGH THE END OF THE STUDY (STUD, Strain/Sex: SYRIAN/FEMALE, Target Tissue: Type of Lesion: PANCREAS: DUCTULAR ADENOMA, Dose [Carcinogen]: 40 MG/KG BW ONCE) is listed as 12/20 (60%), 7/14 (50%), 17%, not significant; the “tumour outcome (control, treated, inhibition, significance)” value (Carcinogen: N-NITROBIS(2-OXOPROPYL)AMINE, 60559-38-4, Dose [Inhibitor]: 0.4 OR 0.8 MMOL/KG DIET DAILY STARTING 1 WK AFTER CARCINOGEN TREATMENT AND CONTINUING THROUGH THE END OF THE STUDY (STUD, Strain/Sex: SYRIAN/FEMALE, Target Tissue: Type of Lesion: PANCREAS: DUCTULAR CARCINOMA, Dose [Carcinogen]: 10 MG/KG BW ONCE) is recorded as 6/23 (27%), 3/23 (13%), 52%, not significant; the “tumour outcome (control, treated, inhibition, significance)” value (Carcinogen: N-NITROBIS(2-OXOPROPYL)AMINE, 60559-38-4, Dose [Inhibitor]: 0.4 OR 0.8 MMOL/KG DIET DAILY STARTING 1 WK AFTER CARCINOGEN TREATMENT AND CONTINUING THROUGH THE END OF THE STUDY (STUD, Strain/Sex: SYRIAN/FEMALE, Target Tissue: Type of Lesion: PANCREAS: DUCTULAR CARCINOMA, Dose [Carcinogen]: 40 MG/KG BW ONCE) was 6/20 (30%), 9/14 (64%), -113%, not significant; the “tumour outcome (control, treated, inhibition, significance)” value (Carcinogen: N-NITROBIS(2-OXOPROPYL)AMINE, 60559-38-4, Dose [Inhibitor]: 0.4 OR 0.8 MMOL/KG DIET DAILY STARTING 1 WK AFTER CARCINOGEN TREATMENT AND CONTINUING THROUGH THE END OF THE STUDY (STUD, Strain/Sex: SYRIAN/MALE, Target Tissue: Type of Lesion: PANCREAS: DUCTULAR CARCINOMA, Dose [Carcinogen]: 40 MG/KG BW ONCE) is listed as 5/24 (21%), 9/24 (38%), -81%, not significant; the “tumour outcome (control, treated, inhibition, significance)” value (Carcinogen: N-NITROBIS(2-OXOPROPYL)AMINE, 60559-38-4, Dose [Inhibitor]: 0.4 OR 0.8 MMOL/KG/D IN DIET STARTING 1 WK AFTER CARCINOGEN TREATMENT AND CONTINUING THROUGH THE END OF THE STUDY (STUDY, Strain/Sex: SYRIAN/MALE, Target Tissue: Type of Lesion: LIVER: BENIGN TUMOR, Dose [Carcinogen]: 40 MG/KG BW ONCE) is given as 21%, 48%, -129%, not significant; the “tumour outcome (control, treated, inhibition, significance)” value (Carcinogen: N-NITROBIS(2-OXOPROPYL)AMINE, 60559-38-4, Dose [Inhibitor]: 0.4 OR 0.8 MMOL/KG/D IN DIET STARTING 1 WK AFTER CARCINOGEN TREATMENT AND CONTINUING THROUGH THE END OF THE STUDY (STUDY, Strain/Sex: SYRIAN/MALE, Target Tissue: Type of Lesion: PANCREAS: DUCTULAR ADENOMA, Dose [Carcinogen]: 10 MG/KG BW ONCE) is 3/22 (14%), 20/36 (56%), -300%, p<0.05. The “tumour outcome (control, treated, inhibition, significance)” value by setting is: (Carcinogen: N-NITROBIS(2-OXOPROPYL)AMINE, 60559-38-4, Dose [Inhibitor]: 0.4 OR 0.8 MMOL/KG/D IN DIET STARTING 1 WK AFTER CARCINOGEN TREATMENT AND CONTINUING THROUGH THE END OF THE STUDY (STUDY, Strain/Sex: SYRIAN/MALE, Target Tissue: Type of Lesion: PANCREAS: DUCTULAR CARCINOMA, Dose [Carcinogen]: 10 MG/KG BW ONCE) 4/22 (18%), 8/36 (22%), -22%, not significant; (Carcinogen: N-NITROBIS(2-OXOPROPYL)AMINE, 60559-38-4, Dose [Inhibitor]: 0.5 OR 1.0 MMOL/KG/D IN DIET STARTING 1 WK AFTER CARCINOGEN TREATMENT AND CONTINUING THROUGH THE END OF THE STUDY (STUDY, Strain/Sex: SYRIAN/FEMALE, Target Tissue: Type of Lesion: PANCREAS: DUCTULAR ADENOMA, Dose [Carcinogen]: 10 MG/KG BW ONCE) 5/23 (22%), 9/23 (39%), -77%, not significant; (Carcinogen: N-NITROBIS(2-OXOPROPYL)AMINE, 60559-38-4, Dose [Inhibitor]: 0.5 OR 1.0 MMOL/KG/D IN DIET STARTING 1 WK AFTER CARCINOGEN TREATMENT AND CONTINUING THROUGH THE END OF THE STUDY (STUDY, Strain/Sex: SYRIAN/FEMALE, Target Tissue: Type of Lesion: PANCREAS: DUCTULAR CARCINOMA, Dose [Carcinogen]: 10 MG/KG BW ONCE) 6/23 (27%), 3/23 (13%), 52%, not significant; (Carcinogen: N-NITROSOBIS(2-OXYPROPYL)AMINE, 60599-38-4, Dose [Inhibitor]: 0.05, 0.1 OR 0.2 MILLIMOLAR/KG DIET FOR 32 WK STARTING 1 WK AFTER THE CARCINOGEN DOSE (STUDY DURATION: 33 WK), Strain/Sex: SYRIAN/FEMALE, Target Tissue: Type of Lesion: LUNG: ADENOMA, Dose [Carcinogen]: 40 MG/KG ONCE) 3/10 (30%), 6/26 (23%), 23%, not significant; (Carcinogen: N-NITROSOBIS(2-OXYPROPYL)AMINE, 60599-38-4, Dose [Inhibitor]: 0.05, 0.1 OR 0.2 MILLIMOLAR/KG DIET FOR 32 WK STARTING 1 WK AFTER THE CARCINOGEN DOSE (STUDY DURATION: 33 WK), Strain/Sex: SYRIAN/MALE, Target Tissue: Type of Lesion: COMMON DUCT: ADENOMA, Dose [Carcinogen]: 40 MG/KG ONCE) 4/12 (33%), 17/29 (59%), -78%, not significant; (Carcinogen: N-NITROSOBIS(2-OXYPROPYL)AMINE, 60599-38-4, Dose [Inhibitor]: 0.05, 0.1 OR 0.2 MILLIMOLAR/KG DIET FOR 32 WK STARTING 1 WK AFTER THE CARCINOGEN DOSE (STUDY DURATION: 33 WK), Strain/Sex: SYRIAN/MALE, Target Tissue: Type of Lesion: GALL BLADDER: ADENOMA, Dose [Carcinogen]: 40 MG/KG ONCE) 3/12 (25%), 12/29 (41%), -64%, not significant. In addition, the “tumour outcome (control, treated, inhibition, significance)” value (Carcinogen: N-NITROSOBIS(2-OXYPROPYL)AMINE, 60599-38-4, Dose [Inhibitor]: 0.05, 0.1 OR 0.2 MILLIMOLAR/KG DIET FOR 32 WK STARTING 1 WK AFTER THE CARCINOGEN DOSE (STUDY DURATION: 33 WK), Strain/Sex: SYRIAN/MALE, Target Tissue: Type of Lesion: LIVER: ADENOMA, Dose [Carcinogen]: 40 MG/KG ONCE) is 50%, 41%, 18%, not significant; the “tumour outcome (control, treated, inhibition, significance)” value (Carcinogen: N-NITROSOBIS(2-OXYPROPYL)AMINE, 60599-38-4, Dose [Inhibitor]: 0.05, 0.1 OR 0.2 MILLIMOLAR/KG DIET FOR 32 WK STARTING 1 WK AFTER THE CARCINOGEN DOSE (STUDY DURATION: 33 WK), Strain/Sex: SYRIAN/MALE, Target Tissue: Type of Lesion: LUNG: ADENOMA, Dose [Carcinogen]: 40 MG/KG ONCE) is 1/12 (8%), 2/29 (3%), 63%, not significant; the “tumour outcome (control, treated, inhibition, significance)” value (Carcinogen: N-NITROSOBIS(2-OXYPROPYL)AMINE, 60599-38-4, Dose [Inhibitor]: 0.05, 0.1 OR 0.2 MILLIMOLAR/KG DIET FOR 32 WK STARTING 1 WK AFTER THE CARCINOGENDOSE (STUDY DURATION: 33 WK), Strain/Sex: SYRIAN/FEMALE, Target Tissue: Type of Lesion: COMMON DUCT: ADENOMA, Dose [Carcinogen]: 40 MG/KG ONCE) is on record as 4/10 (40%), 11/26 (42%), -5%, not significant; the “tumour outcome (control, treated, inhibition, significance)” value (Carcinogen: N-NITROSOBIS(2-OXYPROPYL)AMINE, 60599-38-4, Dose [Inhibitor]: 0.05, 0.1 OR 0.2 MILLIMOLAR/KG DIET FOR 32 WK STARTING 1 WK AFTER THE CARCINOGENDOSE (STUDY DURATION: 33 WK), Strain/Sex: SYRIAN/FEMALE, Target Tissue: Type of Lesion: GALL BLADDER: ADENOMA, Dose [Carcinogen]: 40 MG/KG ONCE) is 6/10 (60%), 2/26 (18%), 70%, not significant; the “tumour outcome (control, treated, inhibition, significance)” value (Carcinogen: N-NITROSOBIS(2-OXYPROPYL)AMINE, 60599-38-4, Dose [Inhibitor]: 0.05, 0.1 OR 0.2 MILLIMOLAR/KG DIET FOR 32 WK STARTING 1 WK AFTER THE CARCINOGENDOSE (STUDY DURATION: 33 WK), Strain/Sex: SYRIAN/FEMALE, Target Tissue: Type of Lesion: LIVER : ADENOMA, Dose [Carcinogen]: 40 MG/KG ONCE) was 6/10 (60%), 10/26 (39%), 35%, not significant; the “tumour outcome (control, treated, inhibition, significance)” value (Carcinogen: N-NITROSOBIS(2-OXYPROPYL)AMINE, 60599-38-4, Dose [Inhibitor]: 0.05, 0.1 OR 0.2 MILLIMOLAR/KG DIET FOR 32 WK STARTING 1 WK AFTER THE CARCINOGENDOSE (STUDY DURATION: 33 WK), Strain/Sex: SYRIAN/FEMALE, Target Tissue: Type of Lesion: PANCREAS: ADENOMA, Dose [Carcinogen]: 40 MG/KG ONCE) is given as 10/10 (100%), 26/26 (100%), 0%, not significant. For the same compound, the “tumour outcome (control, treated, inhibition, significance)” value is on record as 4/10 (40%), 14/26 (54%), -35%, not significant (Carcinogen: N-NITROSOBIS(2-OXYPROPYL)AMINE, 60599-38-4, Dose [Inhibitor]: 0.05, 0.1 OR 0.2 MILLIMOLAR/KG DIET FOR 32 WK STARTING 1 WK AFTER THE CARCINOGENDOSE (STUDY DURATION: 33 WK), Strain/Sex: SYRIAN/FEMALE, Target Tissue: Type of Lesion: PANCREAS: CARCINOMA, Dose [Carcinogen]: 40 MG/KG ONCE); 12/12 (100%), 29/29 (100%), 0%, not significant (Carcinogen: N-NITROSOBIS(2-OXYPROPYL)AMINE, 60599-38-4, Dose [Inhibitor]: 0.05, 0.1 OR 0.2 MILLIMOLAR/KG DIET FOR 32 WK STARTING 1 WK AFTER THE CARCINOGENDOSE (STUDY DURATION: 33 WK), Strain/Sex: SYRIAN/MALE, Target Tissue: Type of Lesion: PANCREAS: ADENOMA, Dose [Carcinogen]: 40 MG/KG ONCE); 6/12 (50%), 12/29 (41%), 18%, not significant (Carcinogen: N-NITROSOBIS(2-OXYPROPYL)AMINE, 60599-38-4, Dose [Inhibitor]: 0.05, 0.1 OR 0.2 MILLIMOLAR/KG DIET FOR 32 WK STARTING 1 WK AFTER THE CARCINOGENDOSE (STUDY DURATION: 33 WK), Strain/Sex: SYRIAN/MALE, Target Tissue: Type of Lesion: PANCREAS: CARCINOMA, Dose [Carcinogen]: 40 MG/KG ONCE).
